This test has as its target T1, PvTRET1 (Polypedilum vanderplanki, UniProt A5LGM7).
T1 construct: gene Tret1; expressed from injected cRNA in Xenopus oocytes; construct described previously
T1 sequence (A5LGM7 1-504): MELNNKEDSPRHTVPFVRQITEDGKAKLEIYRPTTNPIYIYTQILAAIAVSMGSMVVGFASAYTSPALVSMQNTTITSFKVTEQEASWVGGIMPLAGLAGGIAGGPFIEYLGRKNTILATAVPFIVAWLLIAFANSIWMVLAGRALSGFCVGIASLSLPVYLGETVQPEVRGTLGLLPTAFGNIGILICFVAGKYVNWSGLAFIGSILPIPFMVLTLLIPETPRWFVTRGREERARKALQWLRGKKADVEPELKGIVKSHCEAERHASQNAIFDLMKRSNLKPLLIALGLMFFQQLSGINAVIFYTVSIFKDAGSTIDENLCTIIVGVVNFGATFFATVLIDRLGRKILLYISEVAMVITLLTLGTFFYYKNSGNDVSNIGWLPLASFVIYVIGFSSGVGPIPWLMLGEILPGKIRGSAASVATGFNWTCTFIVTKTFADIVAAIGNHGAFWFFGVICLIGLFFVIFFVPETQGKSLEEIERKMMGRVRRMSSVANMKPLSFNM
Briefly: uptake into cRNA-injected Xenopus oocytes, HPLC. The settings on record: 105 mM trehalose, various pH; transport. It counts as cell-based.

Take `OC[C@H]1O[C@H](O[C@H]2O[C@H](CO)[C@@H](O)[C@H](O)[C@H]2O)[C@H](O)[C@@H](O)[C@@H]1O` [trehalose]: the trehalose uptake entry is given as “Trehalose uptake into Xenopus oocytes via PvTRET1 at various pH values”.

For the origin of these results see PMC3429062, “A Novel Member of the Trehalose Transporter Family Functions as an H^+-Dependent Trehalose Transporter in the Reabsorption of Trehalose in Malpighian Tubules” (Frontiers in Physiology, 2012).
